AC50 data for 31 molecules are collected here from patent publication US10925874B2, “Substituted pyrazolopyrimidines as glucocerebrosidase activators” (The United States of America, as Represented by the …, priority 2010, dated 2021).

The target of the experiment is T1, N370S glucocerebrosidase from human spleen homogenate (Homo sapiens, UniProt P04062, N409S).
T1 construct: N370S glucocerebrosidase from human spleen homogenate as the enzyme preparation; from tissue; host or cells: human spleen homogenate
T1 sequence (P04062 40-536 N409S): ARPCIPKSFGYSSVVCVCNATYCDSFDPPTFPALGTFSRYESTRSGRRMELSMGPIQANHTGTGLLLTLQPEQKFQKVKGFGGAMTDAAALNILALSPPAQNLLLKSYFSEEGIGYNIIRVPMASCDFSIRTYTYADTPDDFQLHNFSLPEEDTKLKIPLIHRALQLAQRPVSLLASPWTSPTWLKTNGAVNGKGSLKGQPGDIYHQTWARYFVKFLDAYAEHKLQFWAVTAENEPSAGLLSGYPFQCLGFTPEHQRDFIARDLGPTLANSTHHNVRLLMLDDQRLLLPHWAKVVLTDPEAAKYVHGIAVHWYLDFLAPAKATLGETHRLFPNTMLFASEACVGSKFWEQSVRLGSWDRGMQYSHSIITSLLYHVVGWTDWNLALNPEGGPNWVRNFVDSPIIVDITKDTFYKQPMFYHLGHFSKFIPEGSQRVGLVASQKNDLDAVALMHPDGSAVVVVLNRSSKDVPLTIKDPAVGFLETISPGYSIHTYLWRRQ
Briefly: qHTS fluorogenic enzyme assay for activators of N370S glucocerebrosidase (4-methylumbelliferyl-beta-D-glucopyranoside substrate). In kind it is biochemical. The settings on record: pH 5.0, 37° C. 40 min. An excerpt: qHTS Assay for Inhibitors and Activators of N370S glucocerebrosidase as a Potential Chaperone Treatment of Gaucher Disease: Primary Screen Confirmation
This is a fluorogenic enzyme assay with 4-methylumbelliferyl-beta-D-glucopyranoside as the substrate and N370S glucocerebrosidase from human spleen homogenate as the enzyme preparation. Upon the hydrolysis of this fluorogenic substrate, the resulting product, […] which can be detected by a standard fluorescence plate reader. Data were normalized to the controls for basal activity (without enzyme) and 100% activity (with enzyme). The AC50 values were determined from concentration-response data modeled with the standard Hill equation.
Human spleen homogenate is prepared as follows by homogenizing spleen with assay buffer containing 50 mM citric acid (titrated with potassium phosphate to pH 5.0), 100 mM potassium chloride, 10 mM sodium chloride, 1 mM magnesium chloride, 0.01% Tween-20. The protein concentration of the human spleen homogenate is approximated 1.35 ug/ul.
The assay is performed in 1536 well plates according to the following protocol. (1) 2 ul spleen homogenate ([…] final) is added to each well. (2) 23 nL test compound in DMSO solution is added to each well. The final concentration of compound in the test well is 0.5 nM to 58 uM. (3) 2 ul of substrate (1 mM final) are added to each well. (4) Incubate assay plates at 37° C. for 40 min. (5) Add 2 ul stop solution (1M NaOH and 1M Glycine mixture, pH 10) to each well. (6) Detect the assay plate in a ViewLux plate reader (PerkinElmer) using 365 nm excitation with emission at 440 nm.
On the technique in general: qHTS replaces the single test concentration by a dilution series.

For `Cc1cc(C)n2ncc(C(=O)Nc3ccc4c(c3)OCCO4)c2n1` [NCGC00188773-01, N-(2,3-dihydrobenzo[b][1,4]dioxin-6-yl)-5,7-dimethylpyrazolo[1,5-a]pyrimidine-3-carboxamide], the AC50 was found to be 10.3 µM.
To `Cc1ccc(NC(=O)c2cnn3c(-c4ccccc4)cc(C)nc23)cc1` [NCGC0229718-01, 5-methyl-7-phenyl-N-p-tolylpyrazolo[1,5-a]pyrimidine-3-carboxamide] belongs 206 µM.
Molecule `O=C(NC1CCCCC1)c1cnn2c1NC(=C1CC1)C=C2C(F)F` [NCGC00182175-01, N-cyclohexyl-5-cyclopropylidene-7-(difluoromethyl)-4,5-dihydropyrazolo[1,5-a]pyrimidine-3-carboxamide] came in with an AC50 of 12.6 µM. This AC50 is about 16-fold lower than that of the molecule before.
To `COc1ccc(NC(=O)c2cnn3c(C)cc(C)nc23)cc1` [NCGC00188768-01, N-(4-methoxyphenyl)-5,7-dimethylpyrazolo[1,5-a]pyrimidine-3-carboxamide] belongs 8.19 µM; to `C=C1C=C(C(F)F)n2ncc(C(=O)NCc3ccc(Cl)cc3Cl)c2N1` [NCGC00182146-01, N-(2,4-dichlorobenzyl)-7-(difluoromethyl)-5-methylene-4,5-dihydropyrazolo[1,5-a]pyrimidine-3-carboxamide], 10 µM.
In the case of `O=C(Nc1ccc2c(c1)OCCO2)c1cnn2c1NC(=C1CC1)C=C2C(F)F` [NCGC00182167-01, 5-cyclopropylidene-7-(difluoromethyl)-N-(2,3-dihydrobenzo[b][1,4]dioxin-6-yl)-4,5-dihydropyrazolo[1,5-a]pyrimidine-3-carboxmaide] it was 8.91 µM.
On to `C=C1C=C(C)n2ncc(C(=O)Nc3ccc(F)cc3F)c2N1` [NCGC00182166-01, N-(2,4-difluorophenyl)-7-methyl-5-methylene-4,5-dihydropyrazolo[1,5-a]pyrimidine-3-carboxamide], for which the AC50 was 3.98 µM.
In the case of `Cc1cc(C)n2ncc(C(=O)Nc3ccc(C)c(Cl)c3)c2n1` [NCGC00188782-01, N-(3-chloro-4-methylphenyl)-5,7-dimethylpyrazolo[1,5-a]pyrimidine-3-carboxamide] it was 1.83 µM; in that of `Cc1cc(C)n2ncc(C(=O)Nc3cccc(C(F)(F)F)c3)c2n1` [NCGC00188786-01, 5,7-dimethyl-N-(3-(trifluoromethyl)phenyl)pyrazolo[1,5-a]pyrimidine-3-carboxamide], 41.1 µM.
For the molecule `COc1ccc(NC(=O)c2cnn3c(C)cc(C)nc23)cc1F` [NCGC00188776-01, N-(3-fluoro-4-methoxyphenyl)-5,7-dimethylpyrazolo[,15-a]pyrimidine-3-carboxamide], the AC50 was 1.46 µM.
In the case of `Cc1cc(C)n2ncc(C(=O)Nc3ccc(C(C)(C)C)cc3)c2n1` [NCGC00188764-01, N-(4-tert-butylphenyl)-5,7-dimethylpyrazolo[1,5-a]pyrimidine-3-carboxamide] it was 2.31 µM.
In the case of `C=C1C=C(C(F)F)n2ncc(C(=O)NCCc3ccccc3OC)c2N1` [NCGC00182147-01, 7-(difluoromethyl)-N-(2-methoxyphenethyl)-5-methylene-4,5-dihydropyrazolo[1,5-a]pyrimidine-3-carboxamide] it was 25.1 µM.
In the case of `Cc1cc(C)n2ncc(C(=O)Nc3ccc4c(c3)OCO4)c2n1` [NCGC00054856-02, N-(benzo[d][1,3]dioxol-5-yl)-5,7-dimethylpyrazolo[1,5-a]pyrimidine-3-carboxamide] it was 6.51 µM; in that of `C=C1C=C(C)n2ncc(C(=O)Nc3ccc(C)cn3)c2N1` [NCGC00182198-01, 7-methyl-5-methylene-N-(5-methylpyridin-2-yl)-4,5-dihydropyrazolo[1,5-a]pyrimidine-3-carboxamide], 15.8 µM.
For `Cc1cc(C)n2ncc(C(=O)Nc3cc(F)cc(F)c3)c2n1` [NCGC00187967-01, N-(3,5-difluorophenyl)-5,7-dimethylpyrazolo[1,5-a]pyrimidine-3-carboxamide], the AC50 stood at 6.18 µM.
To `C=C1C=C(C(F)F)n2ncc(C(=O)NCc3ccccc3Cl)c2N1` [NCGC00182148-01, N-(2-chlorobenzyl)-7-(difluoromethyl)-5-methylene-4,5-dihydropyrazolo[1,5-a]pyrimidine-3-carboxamide] belongs 14.1 µM; to `Cc1cc(C)n2ncc(C(=O)Nc3ccccc3C)c2n1` [NCGC00188770-01, 5,7-dimethyl-N-o-tolylpyrazolo[1,5-a]pyrimidine-3-carboxamide], 16.3 µM.
To `C=C1C=C(C(F)F)n2ncc(C(=O)NCc3ccccc3C(F)(F)F)c2N1` [NCGC00182161-01, 7-(difluoromethyl)-5-methylene-N-(2-(trifluoromethyl)benzyl)-4,5-dihdyropyrazolo[1,5-a]pyrimidine-3-carboxamide] belongs 15.8 µM.
For `Cc1cc(C)n2ncc(C(=O)NC3CCC(C(C)(C)C)CC3)c2n1` (stereo not shown) [NCGC00188755-01, N-(4-tert-butylcyclohexyl)-5,7-dimethylpyrazolo[1,5-a]pyrimidine-3-carboxamide], the activity was half-maximal at 4.11 µM (AC50).
To `Cc1cc(C)n2ncc(C(=O)Nc3ccc(C(F)(F)F)cc3)c2n1` [NCGC00188787-01, 5,7-dimethyl-N-(4-(trifluoromethyl)phenyl)pyrazolo[1,5-a]pyrimidine-3-carboxamide] belongs 1.46 µM; to `O=C(Nc1cnn(Cc2ccc(F)cc2)c1)c1cnn2c(C(F)F)cc(-c3ccccc3)nc12` [MLS000662187-01, 7-(difluoromethyl)-N-(1-(4-fluorobenzyl)-1H-pyrazol-4-yl)-5-phenylpyrazolo[1,5-a]pyrimidine-3-carboxamide], 3.26 µM; to `COc1ccc(NC(=O)c2cnn3c(C)cc(C)nc23)c(C)c1` [NCGC00188774-01, N-(4-methoxy-2-methylphenyl)-5,7-dimethylpyrazolo[1,5-a]pyrimidine-3-carboxamide], 51.7 µM.
Molecule `Cc1cc(C)n2ncc(C(=O)Nc3ccc(C#N)cc3)c2n1` [NCGC00188769-01, N-(4-cyanophenyl)-5,7-dimethylpyrazolo[1,5-a]pyrimidine-3-carboxamide] displayed an AC50 of 20.6 µM.
To `Cc1cc(C)n2ncc(C(=O)Nc3ccc(Cl)c(Cl)c3)c2n1` [NCGC00229713-01, N-(3,4-dichlorophenyl)-5,7-dimethylpyrazolo[1,5-a]pyrimidine-3-carboxamide] belongs 3.66 µM.
Regarding `COC(=O)c1ccccc1NC(=O)c1cnn2c1NC(=C1CC1)C=C2C(F)F` [NCGC00182132-01, methyl 2-(5-cyclopropylidene-7-(difluoromethyl)-4,5-dihydropyrazolo[1,5-a]pyrimidine-3-carboxamido)benzoate], the AC50 stood at 15.8 µM.
To `C=C1C=C(C(F)F)n2ncc(C(=O)N3CCN(c4ccccn4)CC3)c2N1` [NCGC00182144-01, (7-(difluoromethyl)-5-methylene-4,5-dihydropyrazolo[1,5-a]pyrimidin-3-yl)(4-(pyridin-2-yl)piperazin-1-yl)methanone] belongs 35.5 µM; to `Cc1cccc(NC(=O)c2cnn3c2NC(=C2CC2)C=C3C(F)F)n1` [NCGC00182139-01, 5-cyclopropylidene-7-(difluoromethyl)-N-(6-methylpyridin-2-yl)-4,5-dihydropyrazolo[1,5-a]pyrimidine-3-carboxamide], 12.6 µM.
To `CC(C)(C)C1CCC(NC(=O)c2cnn3c2NC(=C2CC2)C=C3C(F)F)CC1` (stereo not shown) [NCGC00182182-01, N-(4-tet-butylcyclohexyl)-5-cyclopropylidene-7-(difluoromethyl)-4,5-dihydropyrazolo[1,5-a]pyrimidine-3-carboxamide] belongs 11.2 µM; to `CCc1ccc(NC(=O)c2cnn3c(C)cc(C)nc23)cc1` [NCGC00187970-01, N-(4-ethylphenyl)-5,7-dimethylpyrazolo[1,5-a]pyrimidine-3-carboxamide], 3.26 µM; to `Cc1cc(C)n2ncc(C(=O)Nc3ccccc3Sc3ccccc3)c2n1` [NCGC00229712-01, 5,7-dimethyl-N-(2-(phenylthio)phenyl)pyrazolo[1,5-a]pyrimidine-3-carboxamide], 18.3 µM.
The molecule `C=C1C=C(C)n2ncc(C(=O)Nc3ccccc3C(=O)OC)c2N1` [NCGC00182165-01, methyl 2-(7-methyl-5-methylene-4,5-dihydropyrazolo[1,5-a]pyrimidine-3-carboxamido)benzoate] displayed an AC50 of 10 µM.

The AC50 is the midpoint of the concentration-response curve, whichever way the signal moves. Read a high AC50 as activity only at high concentration.
